Drawing on US11578079B2, “SUMO inhibitor compounds and uses thereof” (CITY OF HOPE, priority 2018, dated 2023), this text covers SUMO and c-Myc for 37 compounds.

The target of one experiment is T1, SUMO (Homo sapiens, UniProt Q9UBT2).
T1 sequence (Q9UBT2 1-640): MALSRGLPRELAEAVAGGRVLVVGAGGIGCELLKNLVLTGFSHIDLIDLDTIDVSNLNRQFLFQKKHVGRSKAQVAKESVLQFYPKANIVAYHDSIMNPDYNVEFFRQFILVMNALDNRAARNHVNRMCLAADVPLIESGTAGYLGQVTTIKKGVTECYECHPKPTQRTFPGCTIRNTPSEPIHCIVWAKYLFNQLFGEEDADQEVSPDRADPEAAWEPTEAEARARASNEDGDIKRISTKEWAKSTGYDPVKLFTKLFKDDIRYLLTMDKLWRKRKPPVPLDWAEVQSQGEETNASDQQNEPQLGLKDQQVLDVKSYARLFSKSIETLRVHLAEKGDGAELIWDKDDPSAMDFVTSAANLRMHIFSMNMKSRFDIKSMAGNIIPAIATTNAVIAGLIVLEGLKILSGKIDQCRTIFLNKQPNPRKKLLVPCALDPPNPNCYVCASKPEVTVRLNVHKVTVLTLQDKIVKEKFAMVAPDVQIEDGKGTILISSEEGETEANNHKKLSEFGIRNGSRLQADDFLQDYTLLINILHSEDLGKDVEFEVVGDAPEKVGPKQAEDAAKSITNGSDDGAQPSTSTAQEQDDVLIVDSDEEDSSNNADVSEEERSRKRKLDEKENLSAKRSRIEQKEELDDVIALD
T1 sequence (Q9UBE0 1-346 partner): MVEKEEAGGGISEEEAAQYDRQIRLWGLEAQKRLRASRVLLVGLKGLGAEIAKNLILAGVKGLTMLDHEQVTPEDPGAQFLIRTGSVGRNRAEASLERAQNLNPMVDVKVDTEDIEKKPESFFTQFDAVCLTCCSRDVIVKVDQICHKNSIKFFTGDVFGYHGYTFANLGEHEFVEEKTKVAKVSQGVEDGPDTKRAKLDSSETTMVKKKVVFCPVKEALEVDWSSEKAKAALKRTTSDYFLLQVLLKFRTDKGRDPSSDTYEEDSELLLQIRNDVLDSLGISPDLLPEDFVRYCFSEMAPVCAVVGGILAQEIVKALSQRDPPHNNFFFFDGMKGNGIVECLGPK
As to the kind of experiment: SUMO activity (Table I, biological activities). More on the design: key: + (less active); ++ (active); +++ (most active). In kind it is biochemical.

The test system of the next experiment is c-Myc. The experiment in a line: c-Myc activity (Table I, biological activities). Details: key: + (less active); ++ (active); +++ (most active).

For `COC(=O)C1=C(C(=O)Nc2ccc(OC)cc2)C2C=CC1(C(Cc1ccccc1)Oc1ccccc1)O2` (centres unmarked) [Compound 325], the SUMO entry at SUMO is reported as “++”. Moreover, in the experiment with c-Myc, the c-Myc result is listed as “++”.

Regarding `CCOC(=O)C1=C(C(=O)Nc2ccc(C)c(F)c2)C2C=CC1(C(Nc1cccc(C)c1)c1ccc(CN3CCOCC3)cc1)O2` (centres unmarked) [Compound 623], the SUMO entry at SUMO was “++”. Also, in the experiment with c-Myc, the c-Myc result is on record as “+”.

In the case of `COC(=O)C1=C(C(=O)Nc2ccc(OC)c(F)c2)C2C=CC1(C(Cc1ccccc1)Nc1ccccc1)O2` (centres unmarked) [Compound 308], at SUMO, the SUMO result is recorded as “+”. Moreover, the c-Myc entry in the experiment on c-Myc is listed as “+”.

As for `CC(=O)C1=CC2(C(Cc3ccccc3)Nc3ccccc3)C=CC1(C)O2` (centres unmarked) [Compound 527], the SUMO entry at SUMO was “+”. Moreover, the c-Myc result in the experiment with c-Myc is recorded as “+”.

As to `COC(=O)C1=C(C(=O)NC2CCN(C)CC2)C2(C(Cc3ccccc3)Nc3cc(F)cc(F)c3)C=CC1O2` (centres unmarked) [Compound 311], at SUMO, the SUMO entry is “++”. In the experiment with c-Myc, the c-Myc result is given as “++”.

`CCOc1cccc(NC(Cc2ccccc2)C23C=CC(O2)C(C(=O)NC2CCN(C)CC2)=C3C(=O)OC)c1` (centres unmarked) [Compound 247]: at SUMO, the SUMO entry is recorded as “+++”. Besides, the c-Myc entry in the experiment on c-Myc is recorded as “+”.

With `COC(=O)C1=C(C(=O)Nc2ccccc2)C2C=CC1(C(Cc1ccccc1)Nc1ccccc1)O2` (centres unmarked) [Compound 163], the SUMO entry at SUMO was “++”. Besides, in the experiment with c-Myc, the c-Myc entry is reported as “+”.

`CCOC(=O)C1=C(C(=O)Nc2ccc(Oc3ccccc3)cc2)C2C=CC1(C(Nc1ccccc1)c1ccc(CN3CCOCC3)cc1)O2` (centres unmarked) [Compound 569]: the SUMO entry at SUMO was “+”. Also, the c-Myc result with c-Myc was “+”.

Regarding `CNCCNC(=O)C1=C(C(=O)OC)C2(C(Cc3ccccc3)Nc3ccccc3)C=CC1O2` (centres unmarked) [Compound 437], the SUMO entry at SUMO was “+”. Also, in the experiment with c-Myc, the c-Myc result is listed as “+”.

`CCOC(=O)C1=C(C(=O)OCC)C2(C(Cc3ccc(F)cc3)Nc3ccccc3)C=CC1O2` (centres unmarked) [Compound 446]: the SUMO result at SUMO is on record as “++”. Moreover, the c-Myc result with c-Myc is “+”.

Turning to `CCOC(=O)C1=C(C(=O)N(C)C)C2C=CC1(C(Cc1ccccc1)Nc1ccccc1)O2` (centres unmarked) [Compound 593], the SUMO result at SUMO was “+”. Besides, the c-Myc entry in the experiment on c-Myc was “+”.

With `COC(=O)C1=C(C(=O)NC2CCN(Cc3ccccc3)CC2)C2C=CC1(C(Cc1ccccc1)Nc1ccccc1)O2` (centres unmarked) [Compound 288], the SUMO entry at SUMO was “++”. Also, the c-Myc result with c-Myc is reported as “++”.

For the compound `COC(=O)C1=C(C(=O)OC)C2(C(Cc3ccc(Cl)cc3)Nc3cc(F)cc(F)c3)C=CC1O2` (centres unmarked) [Compound 425], at SUMO, the SUMO result is “++”. The c-Myc entry in the experiment on c-Myc was “+”.

Regarding `COC(=O)C1=C(C(=O)NCCN(C)C)C2C=CC1(C(Cc1ccc(C(F)(F)F)cc1)Nc1ccccc1)O2` (centres unmarked) [Compound 423], the SUMO entry on SUMO is recorded as “++”. For the same compound, the c-Myc entry with c-Myc is reported as “++”.

For `CCOC(=O)C1=C(C(=O)Nc2ccc(C)c(F)c2)C2C=CC1(C(Nc1ccccc1)c1ccc(CN3CCOCC3)cc1)O2` (centres unmarked) [Compound 558], the SUMO result on SUMO is reported as “+”. The c-Myc entry in the experiment on c-Myc is “+”.

On to `CCOC(=O)C1=C(C(F)(F)F)C2(C(Cc3ccccc3)Nc3ccccc3)C=CC1O2` (centres unmarked) [Compound 298], for which, on SUMO, the SUMO entry is on record as “++”. For the same compound, the c-Myc entry in the experiment on c-Myc is on record as “+”.

For the compound `COC(=O)C1=C(C(=O)NC2CN(C(=O)OC(C)(C)C)C2)C2C=CC1(C(Cc1ccccc1)Nc1ccccc1)O2` (centres unmarked) [Compound 404], the SUMO entry at SUMO is on record as “++”. Further, in the experiment with c-Myc, the c-Myc entry is “+”.

Regarding `CC12C=CC(C(Cc3ccccc3)Nc3ccccc3)(C=C1C(=O)c1ccc(F)cc1)O2` (centres unmarked) [Compound 526], the SUMO entry on SUMO is listed as “+”. Moreover, the c-Myc result in the experiment with c-Myc is on record as “+”.

Regarding `COC(=O)C1=C(C(=O)Nc2ccc(C)nc2)C2CCC1(C(Cc1ccccc1)Nc1ccccc1)O2` (centres unmarked) [Compound 349], the SUMO entry on SUMO is “+”. Also, the c-Myc result with c-Myc is recorded as “+”.

As to `COC(=O)C1=C(C(=O)NC2CCN(C)C2)C2C=CC1(C(Cc1ccccc1)Nc1ccc(F)cc1)O2` (centres unmarked) [Compound 263], the SUMO entry on SUMO is listed as “+++”. Besides, the c-Myc entry in the experiment on c-Myc is reported as “++”.

As to `COC(=O)C1=C(C(=O)Nc2ccc(CN(C)C)c(F)c2)C2C=CC1(C(Cc1ccccc1)Nc1ccccc1)O2` (centres unmarked) [Compound 489], the SUMO result at SUMO is reported as “++”. Besides, the c-Myc result with c-Myc is reported as “+”.

Consider `COC(=O)C1=C(C(=O)NC2CCN(C(=O)C3CCN(C)CC3)CC2)C2C=CC1(C(Cc1ccccc1)Nc1ccccc1)O2` (centres unmarked) [Compound 378], for which, at SUMO, the SUMO entry is recorded as “++”. Further, the c-Myc result in the experiment on c-Myc is “+”.

With `CCOC(=O)C1=C(C(F)(F)F)C2(C(Cc3ccccc3)Oc3ccccc3)C=CC1O2` (centres unmarked) [Compound 513], at SUMO, the SUMO result is on record as “++”. For the same compound, in the experiment with c-Myc, the c-Myc entry was “++”.

For the compound `O=C(C1=CC2(C3OCCO3)C=CC1O2)c1ccc(F)cc1` (centres unmarked) [Compound 523], the SUMO entry on SUMO was “++”. For the same compound, the c-Myc result in the experiment with c-Myc was “+”.

On to `COC(=O)C1=C(C(=O)NC2CCN(C(=O)c3ccc(C#N)cc3)CC2)C2C=CC1(C(Cc1ccccc1)Nc1ccccc1)O2` (centres unmarked) [Compound 379], for which, at SUMO, the SUMO result was “++”. Besides, in the experiment with c-Myc, the c-Myc result is on record as “+”.

As to `COC(=O)C1=C(C(=O)Nc2ccc(OCCN(C)C)cc2)C2C=CC1(C(Cc1ccccc1)Nc1ccccc1)O2` (centres unmarked) [Compound 491], on SUMO, the SUMO result is “+++”. In addition, the c-Myc entry in the experiment with c-Myc is recorded as “+”.

In the case of `COC(=O)C1=C(C(=O)OC)C2(C(Cc3ccccc3)Nc3ccccc3)C=CC1(C)O2` (centres unmarked) [Compound 586], on SUMO, the SUMO entry is given as “++”. Besides, in the experiment on c-Myc, the c-Myc entry was “+”.

`COC(=O)C1=C(C(=O)NC2CCCCC2)C2C=CC1(C(Cc1ccccc1)Nc1ccccc1)O2` (centres unmarked) [Compound 160]: on SUMO, the SUMO entry is “+”. In addition, the c-Myc result with c-Myc is listed as “+”.

Regarding `COC(=O)C1=C(C(=O)NC2CCN(C(=O)C3CC3)CC2)C2C=CC1(C(Cc1ccccc1)Nc1ccccc1)O2` (centres unmarked) [Compound 377], at SUMO, the SUMO entry is “++”. The c-Myc result with c-Myc was “+”.

As for `CNC(=O)C1=C(C(=O)OC)C2(C(Cc3ccccc3)Nc3cc(F)cc(F)c3)C=CC1O2` (centres unmarked) [Compound 208], on SUMO, the SUMO result is recorded as “++”. In the experiment on c-Myc, the c-Myc result was “+”.

For `COC(=O)C1=C(C(=O)OC)C2(C(Nc3ccccc3)c3ccccc3)C=CC1O2` (centres unmarked) [Compound 165], the SUMO entry on SUMO was “++”. The c-Myc result in the experiment with c-Myc is “+”.

For `COC(=O)C1=C(C(=O)NC2CCN(C(=O)CN(C)C)CC2)C2C=CC1(C(Cc1ccccc1)Nc1ccccc1)O2` (centres unmarked) [Compound 385], on SUMO, the SUMO entry is recorded as “++”. Also, in the experiment with c-Myc, the c-Myc result is recorded as “+”.

For the compound `COC(=O)C1=C(C(=O)Nc2ccccc2OC)C2C=CC1(C(Cc1ccccc1)Nc1ccccc1)O2` (centres unmarked) [Compound 352], on SUMO, the SUMO entry is “++”. In addition, in the experiment on c-Myc, the c-Myc result is “+”.

Turning to `COC(=O)C1=C(C(=O)NC2CCN(C)CC2)C2C=CC1(C(Cc1ccccc1)Nc1ccccc1F)O2` (centres unmarked) [Compound 272], the SUMO result on SUMO is reported as “++”. In addition, the c-Myc result in the experiment with c-Myc is recorded as “+”.

As to `COC(=O)C1=C(C(=O)NC2CCN(C(=O)c3c(C)cccc3C)CC2)C2C=CC1(C(Cc1ccccc1)Nc1ccccc1)O2` (centres unmarked) [Compound 381], on SUMO, the SUMO entry is “++”. For the same compound, in the experiment with c-Myc, the c-Myc result is reported as “+”.

As for `COC(=O)C1=C(C(=O)NCc2ccccn2)C2OC1(C(Cc1ccccc1)Oc1ccccc1)C1OC21` (centres unmarked) [Compound 547], the SUMO result on SUMO is “++”. Besides, the c-Myc result in the experiment on c-Myc is “++”.

Turning to `COC(=O)C1=C(C(=O)NC2CCN(S(C)(=O)=O)CC2)C2C=CC1(C(Cc1ccccc1)Nc1ccccc1)O2` (centres unmarked) [Compound 361], the SUMO result on SUMO is given as “++”. The c-Myc result with c-Myc was “+”.
